According to PubChem BioAssay (NCI):
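Test compounds were applied to cells in 96-well plates for 48 hours at 5 doses. Abbreviation: GI50, concentration required for 50% inhibition of growth. At the TGI there is no net growth.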

Legend:
Assay in all cases: NCI tumour cell line growth inhibition, 48 h
[1] = tested on: 786-0 renal
[2] = tested on: A498 renal
[3] = tested on: A549 NSCLC
[4] = tested on: ACHN renal
[5] = tested on: BT-549 breast
[6] = tested on: CAKI-1 renal
[7] = tested on: CCRF-CEM leukemia
[8] = tested on: COLO 205 colon
[9] = tested on: DU-145 prostate
[10] = tested on: EKVX NSCLC
[11] = tested on: HCC-2998 colon
[12] = tested on: HCT-116 colon
[13] = tested on: HCT-15 colon
[14] = tested on: HL-60(TB) leukemia
[15] = tested on: HOP-62 NSCLC
[16] = tested on: HOP-92 NSCLC
[17] = tested on: HS 578T breast
[18] = tested on: HT29 colon
[19] = tested on: IGROV1 ovarian
[20] = tested on: K-562 leukemia
[21] = tested on: KM12 colon
[22] = tested on: LOX IMVI melanoma
[23] = tested on: M14 melanoma
[24] = tested on: MALME-3M melanoma
[25] = tested on: MCF7 breast
[26] = tested on: MDA-MB-231 breast
[27] = tested on: MDA-MB-435
[28] = tested on: MDA-MB-468 breast
[29] = tested on: MOLT-4 leukemia
[30] = tested on: NCI-H226 lung
[31] = tested on: NCI-H23 lung
[32] = tested on: NCI-H460 lung
[33] = tested on: NCI-H522 lung
[34] = tested on: OVCAR-3 ovarian
[35] = tested on: OVCAR-4 ovarian
[36] = tested on: OVCAR-5 ovarian
[37] = tested on: OVCAR-8 ovarian
[38] = tested on: PC-3 prostate
[39] = tested on: RPMI-8226 leukemia
[40] = tested on: RXF 393 renal
[41] = tested on: SF-268 CNS
[42] = tested on: SF-295 CNS
[43] = tested on: SF-539 CNS
[44] = tested on: SK-MEL-2 melanoma
[45] = tested on: SK-MEL-28 melanoma
[46] = tested on: SK-MEL-5 melanoma
[47] = tested on: SK-OV-3 ovarian
[48] = tested on: SN12C renal
[49] = tested on: SNB-75 CNS
[50] = tested on: SR leukemia
[51] = tested on: SW-620 colon
[52] = tested on: T-47D breast
[53] = tested on: TK-10 renal
[54] = tested on: U251 CNS
[55] = tested on: UACC-257 melanoma
[56] = tested on: UACC-62 melanoma
[57] = tested on: UO-31 renal

O=C(/C=C/c1ccc(F)cc1)c1nc2ccccc2n1Cc1ccc(Br)cc1
GI50 [1]: 1.93 µM | TGI [1]: 3.89 µM | GI50 [2]: 17.2 µM | TGI [2]: 32.1 µM | GI50 [3]: 3.93 µM | TGI [3]: 35.3 µM | GI50 [4]: 2.8 µM | TGI [4]: 8.7 µM | GI50 [5]: 2.24 µM | TGI [5]: 5.81 µM | GI50 [6]: 1.97 µM | TGI [6]: 5.74 µM | GI50 [7]: 1.62 µM | TGI [7]: 8.35 µM | GI50 [8]: 2.35 µM | TGI [8]: 5.55 µM | GI50 [9]: 3.47 µM | TGI [9]: 26 µM | GI50 [10]: 2.62 µM | TGI [10]: 7.78 µM | GI50 [11]: 1.81 µM | TGI [11]: 3.36 µM | GI50 [12]: 1.96 µM | TGI [12]: 4.26 µM | GI50 [13]: 1.67 µM | TGI [13]: 3.46 µM | GI50 [14]: 2.02 µM | TGI [14]: 6.3 µM | GI50 [15]: 2.1 µM | TGI [15]: 4.87 µM | GI50 [16]: 2.03 µM | TGI [16]: 12.1 µM | GI50 [17]: 3.71 µM | TGI [17]: 43.3 µM | GI50 [18]: 2.37 µM | TGI [18]: 4.93 µM | GI50 [19]: 2.31 µM | TGI [19]: 5.81 µM | GI50 [20]: 2.84 µM | TGI [20]: > 100 µM | GI50 [21]: 2.13 µM | TGI [21]: 5.22 µM | GI50 [22]: 1.59 µM | TGI [22]: 3.06 µM | GI50 [23]: 2.33 µM | TGI [23]: 6.43 µM | GI50 [24]: 1.83 µM | TGI [24]: 4.17 µM | GI50 [25]: 1.72 µM | TGI [25]: 9.27 µM | GI50 [26]: 2.1 µM | TGI [26]: 4.66 µM | GI50 [27]: 1.85 µM | TGI [27]: 4.19 µM | GI50 [28]: 1.9 µM | TGI [28]: 4.12 µM | GI50 [29]: 2.41 µM | TGI [29]: 8.96 µM | GI50 [30]: 2.96 µM | TGI [30]: 13.1 µM | GI50 [31]: 1.95 µM | TGI [31]: 4.37 µM | GI50 [32]: 1.89 µM | TGI [32]: 4 µM | GI50 [33]: 2.17 µM | TGI [33]: 4.68 µM | GI50 [34]: 1.76 µM | TGI [34]: 3.42 µM | GI50 [35]: 4.3 µM | TGI [35]: 51.4 µM | GI50 [36]: 1.94 µM | TGI [36]: 4.16 µM | GI50 [37]: 2.26 µM | TGI [37]: 5.51 µM | GI50 [38]: 3.37 µM | TGI [38]: 13.7 µM | GI50 [39]: 2.29 µM | TGI [39]: 6.87 µM | GI50 [40]: 1.48 µM | TGI [40]: 2.89 µM | GI50 [41]: 3.58 µM | TGI [41]: 67.8 µM | GI50 [42]: 2.14 µM | TGI [42]: 5.29 µM | GI50 [43]: 1.91 µM | TGI [43]: 3.8 µM | GI50 [44]: 2.12 µM | TGI [44]: 4.74 µM | GI50 [45]: 1.85 µM | TGI [45]: 3.77 µM | GI50 [46]: 2.36 µM | TGI [46]: 6.69 µM | GI50 [47]: 10.5 µM | TGI [47]: > 100 µM | GI50 [48]: 3.02 µM | TGI [48]: 11.1 µM | GI50 [49]: 1.2 µM | TGI [49]: 12.2 µM | GI50 [50]: 2.79 µM | TGI [50]: > 100 µM | GI50 [51]: 2.14 µM | TGI [51]: 4.44 µM | GI50 [52]: 2.68 µM | TGI [52]: 11.3 µM | GI50 [53]: 2.73 µM | TGI [53]: 8.11 µM | GI50 [54]: 1.54 µM | TGI [54]: 2.99 µM | GI50 [55]: 3.2 µM | TGI [55]: 14.7 µM | GI50 [56]: 1.74 µM | TGI [56]: 4.3 µM | GI50 [57]: 1.42 µM | TGI [57]: 2.93 µM
